pIC50: −log10 of the molar value.
Target: T1, ROCKII (1-543) kinase (Homo sapiens, UniProt O75116)
T1 construct: ROCKII (1-543) (62,408 Da) was diluted in assay buffer to a final concentration of 7.5 nM
Experiment: Molecular assay: ROCKII (1-543) kinase activity, PKLight ATP detection (luciferin-luciferase, residual ATP)
Type: biochemical
Details: 750 nM ATP, 500 nM peptide substrate, 7.5 nM kinase, 90 min at 28° C.; read-out: Rock2 IC50
Description: The activity of ROCKII (1-543) kinase was measured utilizing Cambrex PKLight ATP Detection Reagent, a homogeneous assay technology using luciferin-luciferase to quantify residual ATP. The assay was performed in 384-well low-volume, white, non-binding surface microtiter plates (Corning). The assay buffer was 25 mM HEPES, pH 7.5, 10 mM MgCl2, 50 mM KCl, 0.2% BSA, 0.01% CHAPS, 100 μM Na3VO4 and 0.5 mM DTT. Test compounds, dissolved in neat DMSO at 500 μg/mL, were serially diluted for dose response for a final starting concentration of 3 μg/mL in 1% DMSO of assay buffer. ROCKII (1-543) (62,408 Da) was diluted in assay buffer to a final concentration of 7.5 nM in a total volume of 15 μL. Positive controls were reaction mixtures containing no test compound; negative controls (blanks) were reaction mixtures containing no kinase. After 15 minutes of pre-incubation of the test compounds with the kinase, a mixture of ATP and peptide substrate ([…]) in assay buffer was added to each well for a final concentration of 750 nM ATP and 500 nM peptide, respectively. After 90 minutes of incubation of the kinase reaction at 28° C. temperature, 10 μL of PKLight ATP Detection Reagent (warmed to room temperature previously) was added to each well. The assay plate was incubated at room temperature for additional 15 minutes and then read on an Analyst in luminescence mode. Dose-response experiments for each of the test compounds were conducted in quadruplet. IC50 values of test compounds represent 50% response of the positive control from the dose-response curve.
Representative compounds of the present invention were tested for activity in this assay and all had IC50 values <10 μM. Preferred compounds have an IC50<1 μM and more preferred compounds have an IC50<0.1 μM in this assay. As examples the following data were obtained for the compounds named below: […]

T1 sequence (O75116 1-543): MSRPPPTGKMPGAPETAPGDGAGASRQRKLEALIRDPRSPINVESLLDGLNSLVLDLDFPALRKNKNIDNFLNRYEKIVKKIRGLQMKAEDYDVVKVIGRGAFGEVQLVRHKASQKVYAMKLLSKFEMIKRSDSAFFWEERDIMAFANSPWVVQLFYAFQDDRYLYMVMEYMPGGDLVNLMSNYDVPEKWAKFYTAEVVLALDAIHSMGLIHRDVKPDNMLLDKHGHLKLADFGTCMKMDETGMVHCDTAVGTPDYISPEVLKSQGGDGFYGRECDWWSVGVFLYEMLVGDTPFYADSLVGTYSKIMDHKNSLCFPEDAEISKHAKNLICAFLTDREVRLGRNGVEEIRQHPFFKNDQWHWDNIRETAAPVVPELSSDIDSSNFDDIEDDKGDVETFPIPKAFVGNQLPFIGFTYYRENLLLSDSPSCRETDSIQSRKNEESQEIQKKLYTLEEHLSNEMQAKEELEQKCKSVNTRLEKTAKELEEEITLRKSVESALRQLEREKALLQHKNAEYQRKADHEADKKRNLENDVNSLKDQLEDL

Going from COc1ccc(C(=O)NCc2cccc(C(=O)Nc3nc4c(s3)C[C@@H](N3CCS(=O)(=O)CC3)CC4)c2)cc1OC [N-{3-[(S)-6-(1,1-Dioxo-thiomorpholin-4-yl)-4,5,6,7-tetrahydro-benzothiazol-2-ylcarbamoyl]-benzyl}-3,4-dimethoxy-benzamide] to COc1ccc(C(=O)NCc2cccc(C(=O)Nc3nc4c(s3)C[C@@H](N3CCOCC3)CC4)c2)cc1OC [3,4-Dimethoxy-N-[3-((S)-6-morpholin-4-yl-4,5,6,7-tetrahydro-benzothiazol-2-ylcarbamoyl)-benzyl]-benzamide], the pIC50 rises from 7.89 to 9.00 (1.11 log units). The second is the more potent here.

First: COc1ccc(C(=O)NCc2cccc(NC(=O)c3nc4c(s3)CNCC4)c2)cc1OC [4,5,6,7-Tetrahydro-thiazolo[5,4-c]pyridine-2-carboxylic acid {3-[(3,4-dimethoxy-benzoylamino)-methyl]-phenyl}-amide]
Second: COc1ccc(C(=O)NCc2cccc(C(=O)Nc3nc4c(s3)CNCC4)c2)cc1Cl [3-Chloro-4-methoxy-N-[3-(4,5,6,7-tetrahydro-thiazolo[5,4-c]pyridin-2-ylcarbamoyl)-benzyl]-benzamide]
The pIC50 of the first is 0.74 log units lower: 7.66 for the first, 8.40 for the second.

Compared with CCCN[C@H]1CCc2nc(NC(=O)c3cccc(CNC(=O)c4ccc(OC)c(Cl)c4)c3)sc2C1 [3-Chloro-4-methoxy-N-[3-((S)-6-propylamino-4,5,6,7-tetrahydro-benzothiazol-2-ylcarbamoyl)-benzyl]-benzamide], CCCN[C@H]1CCc2nc(N(CCOC)C(=O)c3cccc(CNC(=O)c4ccc(OC)c(Cl)c4)c3)sc2C1 [3-Chloro-4-methoxy-N-{3-[(2-methoxy-ethyl)-((S)-6-propylamino-4,5,6,7-tetrahydro-benzothiazol-2-yl)-carbamoyl]-benzyl}-benzamide] is 1.56 log units lower in pIC50: 8.70 for the first, 7.14 for the second.

First: COc1ccc(C(=O)NCc2cccc(C(=O)Nc3ccc4c(c3)CC(N)C4)c2)cc1OC (centres unmarked) [N-[3-(2-Amino-indan-5-ylcarbamoyl)-benzyl]-3,4-dimethoxy-benzamide]
Second: COc1ccc(C(=O)NCc2cccc(C(=O)Nc3ccc4c(c3)CNC4)c2)cc1OC [N-[3-(2,3-Dihydro-1H-isoindol-5-ylcarbamoyl)-benzyl]-3,4-dimethoxy-benzamide]
The pIC50 of the first is 0.30 log units lower: 7.92 for the first, 8.22 for the second. The second is the more potent here.

First: COc1ccc(C(=O)NCc2cccc(C(=O)Nc3ncc(CCN4CCN(C)CC4)s3)c2)cc1OC [3,4-Dimethoxy-N-(3-{5-[2-(4-methyl-piperazin-1-yl)-ethyl]-thiazol-2-ylcarbamoyl}-benzyl)-benzamide]
Second: COc1ccc(C(=O)NCc2cccc(C(=O)Nc3cnc4c(c3)CN(C)CC4)c2)cc1OC [3,4-Dimethoxy-N-[3-(6-methyl-5,6,7,8-tetrahydro-[1,6]naphthyridin-3-ylcarbamoyl)-benzyl]-benzamide]
The pIC50 of the first is 0.49 log units higher: 7.70 for the first, 7.21 for the second.

Going from CCN1CCc2ccc(NC(=O)c3cccc(CNC(=O)c4ccc(OC)c(OC)c4)c3)cc2C1 [N-[3-(2-Ethyl-1,2,3,4-tetrahydro-isoquinolin-7-ylcarbamoyl)-benzyl]-3,4-dimethoxy-benzamide] to COCCN1CCc2ccc(NC(=O)c3cccc(CNC(=O)c4ccc(OC)c(OC)c4)c3)cc2C1 [3,4-Dimethoxy-N-{3-[2-(2-methoxy-ethyl)-1,2,3,4-tetrahydro-isoquinolin-7-ylcarbamoyl]-benzyl}-benzamide], the pIC50 falls from 7.57 to 7.00 (0.57 log units).

Compared with COc1ccc(C(=O)NCc2cccc(C(=O)Nc3nc4c(s3)C[C@H](N(C)C)CC4)c2)cc1OC [N-[3-((R)-6-Dimethylamino-4,5,6,7-tetrahydro-benzothiazol-2-ylcarbamoyl)-benzyl]-3,4-dimethoxy-benzamide], COc1ccc(C(=O)NCc2cccc(C(=O)Nc3ccc4c(c3)CCNCC4)c2)cc1OC [3,4-Dimethoxy-N-[3-(2,3,4,5-tetrahydro-1H-benzo[d]azepin-7-ylcarbamoyl)-benzyl]-benzamide] is 1.18 log units lower in pIC50: 9.00 for the first, 7.82 for the second. The first is the more potent here.

Going from COc1ccc(C(=O)NCc2cccc(C(=O)Nc3ccc(CCN4CCCC4)cc3)c2)cc1C [4-Methoxy-3-methyl-N-{3-[4-(2-pyrrolidin-1-yl-ethyl)-phenylcarbamoyl]-benzyl}-benzamide] to COc1ccc(C(=O)NCc2cccc(C(=O)Nc3ccc(OCCN4CCOCC4)cc3)c2)cc1OC [3,4-Dimethoxy-N-{3-[4-(2-morpholin-4-yl-ethoxy)-phenylcarbamoyl]-benzyl}-benzamide], the pIC50 rises from 6.92 to 7.24 (0.32 log units).

Work on CN1CCc2nc(NC(=O)c3cccc(CNC(=O)Nc4ccc(C#N)cc4)c3)sc2C1 [3-[3-(4-Cyano-phenyl)-ureidomethyl]-N-(5-methyl-4,5,6,7-tetrahydro-thiazolo[5,4-c]pyridin-2-yl)-benzamide] yielded a pIC50 of 8.00.

Test system: not given
Experiment: not given
Details: long term treatment; cited from earlier work

For O=S(=O)(c1cccc2cnccc12)N1CCCNCC1 [fasudil], the coronary constrictive remodeling is given as “promote a regression of coronary constrictive remodeling”.

For O=S(=O)(c1cccc2cnccc12)N1CCCNCC1 [fasudil], the coronary stenosis is listed as “progressively reduce coronary stenosis”.

Test system: not given
Experiment: not given
Details: rat stroke model; cited from earlier work

In the case of O=S(=O)(c1cccc2cnccc12)N1CCCNCC1 [fasudil], the “infarct size and neurologic deficit” value is given as “reduce both the infarct size and neurologic deficit”.

From patent publication US8093266B2, “Rho kinase inhibitors” (Boehringer Ingelheim International GmbH, priority 2007, dated 2012)
